Key:
[1] = tested on: awake Wistar rats; assay: Respiration in normoxia and hypoxia in the awake rat (plethysmographic chamber); format: in vivo; conditions: for minute lung ventilation after administration of haloperidol and N-oleoyl-dopamine: haloperidol 0.9 mg/kg i.p. prior to N-oleoyl-dopamine 40 mg/kg i.p.
Method: The study was performed in awake Wistar rats in a computerized plethysmographic chamber for small rodents. Respiratory frequency, tidal volume and pulmonary ventilation were measured. The experimental protocol included recordings in normoxia (breathing with atmospheric air), two levels of hypoxic stimulus (8% and 12% O2 in N2), intraperitoneal (i.p.) administration of N-oleoyl-dopamine (in a dose of 40 mg/kg) and repeated recordings for both normoxic and hypoxic states. Additionally, further experiments with the dopamine receptor antagonist haloperidol (in a dose of 0.9 mg/kg, i.p.) were performed. In those experiments, haloperidol was administered prior to N-oleoyl-dopamine and the recordings according the above-mentioned protocol were repeated.
The study was performed in awake Wistar rats in a computerized plethysmographic chamber for small rodents. Respiratory frequency, tidal volume and pulmonary ventilation were measured. The experimental protocol included recordings for normoxia (breathing with atmospheric air), for two levels of hypoxic stimulus (8% and 12% O2 in N2), intraperitoneal (i.p.) administration of 3′-O-methyl-N-oleoyl-dopamine (in a dose of 40 mg/kg), and then repeated recordings for both normoxic and hypoxic states.

[2] = tested on: rat model of Parkinson's disease
Method: Symptoms of the Parkinson's disease, particularly muscle rigidity during flexion and extension movements in the ankle joint, were induced with reserpine (2.5 mg/kg, i.p.) and a-methyl-tyrosine (α-MT, 250 mg/kg, i.p.) administered at a 16-h interval. Afterwards, 3′-O-methyl-N-oleoyl-dopamine (O-Me-OLDA) was administered at a dose of 10 mg/kg and the muscular tone was measured using electromyographic (EMG) techniques. The control groups consisted of a) only vehiculum-treated animals in which no symptoms of Parkinson's disease were induced (control), b) animals who received only 3′-O-methyl-N-oleoyl-dopamine (O-Me-OLDA) and c) animals in which symptoms of Parkinson's disease were induced (reserpine+α-MT), but no other treatment was introduced.
This method is a pharmacological tool for modeling the typical, dopamine-deficiency-related brain symptoms of Parkinson's disease in rats.

[3] = tested on: anesthetized, paralyzed and artificially ventilated Wistar rats; assay: Respiratory response to hypoxia in the anesthetized rat (integrated phrenic nerve activity); format: in vivo
Method: The study was performed in anesthetized, paralyzed and artificially ventilated Wistar rats. During the experiments, the integrated activity of the phrenic nerve was recorded. This activity reflects the frequency and tidal volume; their product represents the index of minute lung ventilation. The experimental protocol consisted of control recordings for two levels of the hypoxic stimulus: 14% and 11% O2 in N2. Afterwards, N-oleoyl-dopamine in a dose of 20 mg/kg was given and the recordings were repeated. Additionally, experiments with two dopamine receptor antagonists were performed: first, with the penetrating through the blood-brain barrier D2 dopamine receptor antagonist haloperidol and second, with the non-penetrating through the blood-brain-barrier domperidone. In these studies, after the control recordings, haloperidol (in a dose of 3 mg/kg) or domperidone (in a dose of 0.3 mg/kg) were administered and the recordings repeated. Then, N-oleoyl-dopamine was given and the recordings were repeated.

[4] = tested on: membrane system of the rat brain; assay: Binding to the rat brain membrane system after intraperitoneal administration (TLC of brain lipids); format: in vivo, Wistar rats; conditions: 20 mg/kg intraperitoneal
Method: N-oleoyl-dopamine was administered to Wistar rats at a dose of 20 mg/kg. After 1, 2, 3 or 24 hours the rat was sacrificed and the brain was resected. From the tissue, the whole lipid fraction, containing all lipids of the brain and the membrane fraction of the rat brain were obtained. Total lipids were obtained by homogenization of the brain in a mixture of chloroform and methanol 2:1 followed by an extraction of the water-soluble fractions and evaporation of the solvent. The membrane phase was obtained according to Xu et al. (Xu, 1998) and extracted with chloroform to obtain membrane lipids. All obtained samples were analyzed by the thin layer chromatography TLC on silica gel plates 60 using a mixture of chloroform and methanol 95:5 as the mobile phase and N-oleoyl-dopamine as the standard. The Retention Factor (Rf) for the N-oleoyl-dopamine standard was equal to 0.24-0.26. At the same level (the same Rf=0.24-0.29) there were bands corresponding to N-oleoyl-dopamine in the biological samples, that is after systemic N-oleoyl-dopamine injection, but not in the control samples obtained with no N-oleoyl-dopamine injection.

[5] = biological target: T1, catechol-O-methyltransferase (Homo sapiens, UniProt P21964); assay: O-methylation by catechol-O-methyltransferase in vitro; format: in vitro ADME; conditions: PBS pH=8, 10 mM magnesium ions, S-adenosyl-L-methionine, one hour at 37° C.
T1 sequence (P21964 1-271): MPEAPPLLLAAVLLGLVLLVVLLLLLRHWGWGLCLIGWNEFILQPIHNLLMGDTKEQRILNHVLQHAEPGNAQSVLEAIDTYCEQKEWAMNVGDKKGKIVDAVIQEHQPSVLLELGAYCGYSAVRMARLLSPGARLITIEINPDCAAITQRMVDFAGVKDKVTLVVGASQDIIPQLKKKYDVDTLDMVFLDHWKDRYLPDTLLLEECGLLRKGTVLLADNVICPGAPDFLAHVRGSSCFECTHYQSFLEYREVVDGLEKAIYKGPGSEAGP
Method: N-oleoyl-dopamine underwent the reaction of methylation with the catechol-O-methyltransferase in PBS buffer pH=8 with 10 mM magnesium ions as the co-factor and S-adenosyl-L-methionine as the donor of methyl groups. The reaction was conducted for one hour at 37° C. After the termination of the reaction, the reaction mixture was extracted with chloroform to obtain an organic and an aqueous phase. Both phases were analyzed using UV/VIS spectrophotometry and high performance liquid chromatography with mass detection (HPLC/MS). It was shown that the organic phase contained both N-oleoyl-dopamine and 3′-O-methyl-N-oleoyl-dopamine (the substrate and the product of the reaction, respectively), and the aqueous phase S-adenosyl-L-methionine and its demethylated derivative, S-adenosyl-L-homocystein (the substrate and the product of the reaction, respectively). The obtained results were additionally confirmed with the mass spectrometry (MS).

[6] = after injection into the carotid artery; cited from earlier work
[7] = tested on: rat; conditions: cited from earlier work
[8] = N-oleoyl-dopamine given after domperidone 0.3 mg/kg
[9] = N-oleoyl-dopamine given after haloperidol 3 mg/kg

| penetration into the brain tissue [4] | O-methylation by catechol-O-methyltransferase [5] | Compound | peak respiratory response after administration ([1]; 8% hypoxia, 40 mg/kg i.p.) [ml/min/kg body weight] | resting ventilation during breathing with atmospheric oxygen after administration ([1]; normoxia, 40 mg/kg i.p.) [ml/min/kg body weight] | level of muscle tone elevated by reserpine (force needed for flexion and extension of the ankle joint) ([2]; 10 mg/kg, FIG. 1) | muscle rigidity in rats showing symptoms of Parkinson's disease ([2]; reserpine 2.5 mg/kg i.p. + α-MT 250 mg/kg i.p., compound 10 mg/kg) | respiration in the inhibitory phase [3, 8] | response to hypoxia in the stimulatory phase [3, 8] | respiratory response in the first stimulatory phase [3, 9] | respiratory response in the second inhibitory phase [3, 9] | minute lung ventilation after administration of haloperidol and N-oleoyl-dopamine ([1]; 8% hypoxia) [ml/min/kg body weight] | peak respiratory response after administration ([1]; 12% hypoxia, 40 mg/kg i.p.) [ml/min/kg body weight] | minute lung ventilation after administration of haloperidol and N-oleoyl-dopamine ([1]; 12% hypoxia) [ml/min/kg body weight] | peak respiratory response after N-oleoyl-dopamine under blockade of the dopaminergic system ([1]; haloperidol 0.9 mg/kg i.p. prior to N-oleoyl-dopamine) | ability to penetrate into the brain [6] | locomotive activity [7] | respiration in the second inhibitory phase of the hypoxic response ([3]; drug alone) |
| --- | --- | --- | --- | --- | --- | --- | --- | --- | --- | --- | --- | --- | --- | --- | --- | --- | --- |
|  |  | CCCCCCCC/C=C\CCCCCCCC(=O)NCCc1ccc(O)c(OC)c1 [3′-O-methyl-N-oleoyl-dopamine] | 1939±255 | 779.7±148.7 | decreases nearly down to the control level | abolished muscle rigidity |  |  |  |  |  |  |  |  |  |  |  |
| penetrates | undergoes the O-methylation | CCCCCCCC/C=C\CCCCCCCC(=O)NCCc1ccc(O)c(O)c1 [N-oleoyl-dopamine] | 1338.3±49.5 |  |  |  | still diminished the respiration | did not change the response to hypoxia | did not restore the respiratory response | still diminished it | 1947.3±66.5 | 856.6±73.7 | 1484.0±92.3 | only a slight reduction | ability to penetrate into the brain | increases the locomotive activity |  |
|  |  | O=C(CCCN1CCC(O)(c2ccc(Cl)cc2)CC1)c1ccc(F)cc1 [haloperidol, reference compound] |  |  |  |  |  |  |  |  |  |  |  |  |  |  | diminished the respiration |
